Entries after “also recorded” stand apart in the source; their conditions may differ.
Columns and labels:
[1] = native C60; toluene or benzene; cited from earlier work
hepatocytes = experiment: Protection in hepatocytes; format: cell-based
[2] = EPR free radical scavenging (hydroxyl and superoxide); details: for anti-oxidant potency, isomers compared: EPR analysis
Method: FIGS. 9A and 9B show the EPR spectra of OH (from 100 μM H2 O2 in Fe^2+ by the Fenton reaction) and O2 - (from xanthine+xanthine oxidase) radicals with 100 mM 5,5-dimethyl-1-pyrolline-N-oxide (DMPO) as the spin-trapping agent. Hydroxyl radical (FIG. 9A): OH in the presence of […] alone (top), in the presence of 4 mM O-3a (middle), or in the presence of 4 mM R-3b (bottom). Superoxide radical (right): O2 - in DMPO alone (top), in the presence of 400 mM O-3a (middle), in the presence of 400 mM R-3b (bottom). […] The sample was analyzed in a quartz flat cell (60×10×0.25 mm) in a Bruker 200, X-band EPR spectrometer. Settings were power=1.6 mW, modulation=1 G, field modulation=100 Hz, R.G.=3.2×10^5.

[3] = system: endothelial cell cultures; experiment: Protection in endothelial cell cultures; format: cell-based
[4] = EPR spin-trap (DMPO) hydroxyl radical scavenging; details: for scavenging of OH: EPR
Method: (§1) FIGS. 9A and 9B show the EPR spectra of OH (from 100 μM H2 O2 in Fe^2+ by the Fenton reaction) and O2 - (from xanthine+xanthine oxidase) radicals with 100 mM 5,5-dimethyl-1-pyrolline-N-oxide (DMPO) as the spin-trapping agent. Hydroxyl radical (FIG. 9A): OH in the presence of […] alone (top), in the presence of 4 mM O-3a (middle), or in the presence of 4 mM R-3b (bottom). Superoxide radical (right): O2 - in DMPO alone (top), in the presence of 400 mM O-3a (middle), in the presence of 400 mM R-3b (bottom). The arrow designates a spurious signal due to an unknown radical in the cavity. The sample was analyzed in a quartz flat cell (60×10×0.25 mm) in a Bruker 200, X-band EPR spectrometer. Settings were power=1.6 mW, modulation=1 G, field modulation=100 Hz, R.G.=3.2×10^5.

[5] = EPR spin-trap (DMPO) superoxide radical scavenging, xanthine + xanthine oxidase; details: xanthine oxidase with xanthine
Method: as §1

cortical neurons [6] = experiment: AMPA-induced excitotoxic neuronal death in neuron-astrocyte co-cultures (LDH efflux); format: cell-based, mouse
Method: (§2) Mouse embryos (gestational day 15) are removed from pregnant anesthetized Swiss-Webster mice, and the neocortex is dissected away from other brain structures. After brief incubation in trypsin, the cells are dissociated by trituration, and the cell suspension is then diluted into plating medium and plated onto previously-prepared 24-well Plastek culture plates coated with poly-D-lysine/laminin (for neuronal cultures) or onto an existing bed of astrocytes (for co-cultures). After 1-2days in vitro, a partial exchange with glial conditioned medium is made for "pure" neuronal cultures, and cytosine arabinoside (3 μM) is added immediately after feeding to inhibit glial proliferation. Mixed cultures are fed biweekly with growth medium until 11-12 days in vitro, when they are fed with serum-free MS containing 2 mM L-glutamine. Unless otherwise stated, cells were used at 14-16 days in vitro.

cortical neurons [7] = experiment: NMDA-induced excitotoxic neuronal death in neuron-astrocyte co-cultures (LDH efflux); format: cell-based, mouse
Method: as §2
Carboxyfullerene (3-300 (M) was co-applied to neuron-astrocyte co-cultures described above with NMDA for assessment of neuroprotection. Brief exposure to NMDA in the presence of the carboxyfullerene was carried out by triple exchange of the medium with HBBSS, followed by addition of 50 μM-500 μM NMDA plus carboxyfullerene for 10 minutes. The NMDA and carboxyfullerene were removed by quadruple exchange of the medium with MS, and the cultures were placed in the humidified, CO2 (5%), 37° C. incubator for 24 hours, when the extent of injury was assessed.

[8] = Spin-label/EPR membrane parameters (5- or 16-doxyl ketostearic acid in brain lipids); set-up: species or system mouse; details: 16-doxylstearic acid; control 0.8
Method: Values are mean±SEM, n=8-12 per condition. I=p<0.05 vs. untreated injury condition, using ANOVA followed by Student-Newman-Keuls test for multiple comparisons. **=p<0.05 R-3b different than O-3a. […] The spin labels were added to lipids extracted from adult mouse brain at a ratio of 1:100. EPR settings were the same as those listed in the legend for FIGS. 9A and 9B.
^a Order parameter, S = a(T_.cent. - T .cent.)/(T - T ),
^b Correlation time, tc = 6.5 × 10^-10 wo [(ho
^c Lipid/aqueous partition factor, f = hL /hA, where hL

cortical neurons [9] = experiment: Neuroprotection, general statement; format: cell-based, mouse
Method: as §2

Solubility = format: physicochemical
Text: Solutions of carboxyfullerene were translucent brown.

NMDA receptor = experiment: NMDA-stimulated 45Ca2+ accumulation in cultured neurons; format: cell-based, mouse; details: up to 300 (M [µM], with NMDA 300 (M, 10 min
Method: as §2, with “Mouse neocortical cultures were prepared as neuron-astrocyte co-cultures (approximately 50% astrocytes) (Rose et al., 1992) or as neuronal cultures (<2% astrocytes). Mouse” for “Mouse”
To verify that protection against NMDA-induced neuronal cell injury was not due to a reduction in NMDA-induced calcium influx, ^45 Ca^2+ tracer studies were performed. […]

FALS mice = experiment: Survival in transgenic model of ALS (FALS mice, Gurney G1 strain); format: in vivo, mouse; details: 15 mg/kg/day, intraperitoneal mini-osmotic pumps
Method: The G1 line, with 18 copies and 4 times the SOD activity of wildtype animals, develops motor neuron death by 3-4 months of age, with hindlimb weakness, impaired grooming, and thinning along their flanks. Affected mice were dead before 5 months of age (Gurney et al., 1994).
C60 (C(COOH)2)3 was used to treat FALS mice (Gurney G1 strain) to determine its ability to treat FALS. At 10 weeks of age, Alzet mini-osmotic pumps (28 day, 6 (l/day, 15 mg/kg/day) containing C60 (C(COOH)2)3 (the mixed isomers, which consist of >90% O-3a) or saline were implanted intraperitoneally. The pumps were replaced at 14 weeks of age. Videotaped assessments of open field walking were performed and scored using the Bresnahan scale for spinal cord injury (Basso et al, 1995). As reported by Gurney and colleagues, these animals develop motor symptoms by approximately 90 days of age, and are moribund between 125 and 145 days of age.

cortical neurons [10] = experiment: Serum deprivation apoptotic neuronal death (trypan blue); format: cell-based, mouse
Method: as §2

wild-type animals = details: mouse, in vivo, 15 mg/kg/day
Text: The 8 day increase in survival reached statistical significance (p=0.041), by t-test. There was no difference in survival for FALS mice who received no pumps (123 days, n=4) or those treated with saline-filled pumps (125 days, n=6).

## c12c3c4c5c1c1c6c7c2c2c8c3c3c9c4c4c%10c5c5c1c1c6c6c%11c7c2c2c7c8c3c3c8c9c4c4c9c%10c5c5c1c1c6c6c%11c2c2c7c3c3c8c4c4c9c5c1c1c6c2c3c41 [C60, Buckminsterfullerene]
[1]
  solubility (solvents): soluble only in a limited number of solvents, such as toluene or benzene

## O=C(O)C1(C(=O)O)C23c4c5c6c7c8c4-c4c2c2c9c%10c%11c%12c(c-5c5c%13c%14c%15c%16c%17c(c-7c7c%18c%19c%20c%21c(c4C%204C(C(=O)O)(C(=O)O)C874)c2c2c9c4c%11c7c(c%13%12)c%14c8c%16c9c(c%18%17)c%19c%11c%21c2c2c4c7c8c9c%112)C%152C(C(=O)O)(C(=O)O)C652)C%1013 (stereo not shown) [O-3a]
hepatocytes
  protection from injury in hepatocytes vs R-3b: enhanced protection over R-3b
[2]
  anti-oxidant potency, isomers compared: equipotent anti-oxidants
[3]
  protection from injury in endothelial cell cultures vs R-3b: enhanced protection over R-3b
[4]; 150 (M [µM], H2O2, 15 minute period
  OH signal (DMPO-OH spin adduct): elimination of this OH signal
[4]
  scavenging of OH: extremely potent scavengers of OH
[5]
  superoxide radical signal (DMPO-OOH): eliminated the superoxide radical signal
Cortical neurons [6]; FIG. 10B, n=8-12 per condition
  protection against AMPA-induced neuronal death vs R-3b: substantially better protection
Cortical neurons [7]; FIG. 10A, n=8-12 per condition
  protection from NMDA injury vs R-3b: slightly better protection
[8]
  Lipid/aqueous partition factors: 1.0 ± 0.2

## O=C(O)C1(C(=O)O)C23c4c5c6c7c8c9c%10c%11c%12c%13c%14c%15c(c6c6c4c4c%16c%17c%18c(c%19c%20c2c5c8c2c%20c5c%19c8c%19c%20c(c%21c%12c%12c%22c%23c(c(c%188)C%198C(C(=O)O)(C(=O)O)C%21%228)c%17c8c4c6c%15c(c%12%14)c%238)c%11c(c92)c%205)C%1613)C71C(C(=O)O)(C(=O)O)C%13%101 (stereo not shown) [R-3b]
Cortical neurons [9]
  neuroprotection: effective neuroprotectant
[2]
  anti-oxidant potency, isomers compared: equipotent anti-oxidants
[4]
  scavenging of OH: extremely potent scavengers of OH
[5]
  superoxide radical signal (DMPO-OOH): eliminated the superoxide radical signal
[8]
  Lipid/aqueous partition factors: 0.6

## O=C(O)C1(C(=O)O)C23c4c5c6c7c8c9c(c%10c%11c2c2c4c4c%12c5c5c6c6c8c8c%13c9c9c%10c%10c%11c%11c2c2c4c4c%12c%12c5c5c6c8c6c8c%13c9c9c%10c%10c%11c2c2c4c4c%12c5c6c5c8c9c%10c2c45)C713 [dicarboxy fullerene]
Cortical neurons [9]
  neuroprotective efficacy vs hexacarboxy derivative: less effective neuroprotectants
Solubility; aqueous solution
  solubility in aqueous solution vs hexacarboxy derivative: less soluble

## C60 (C(COOH)2)3
NMDA receptor
  45Ca2+ accumulation: not affected
FALS mice
  onset of symptoms: delay in onset of symptoms
FALS mice; p=0.041 by t-test
  delay in death: 8 ± 2.2 days
Cortical neurons [10]; 10 (M [µM], 48 hours, trypan blue, 10 µM
  reduction in neuronal death, serum deprivation: 50%
Cortical neurons [10]; co-application
  apoptotic neuronal death due to serum deprivation: attenuated
Solubility; water
  solubility in water: at least 50 mM
[2]; OH over O2-
  scavenging ability towards OH vs potency for O2- radicals: 10 fold
wild-type animals
  body weight vs untreated littermates: weights were similar
Cortical neurons [6]; 100 (M [µM], MK-801 10 (M included), 24 h, data from 4 experiments pooled, 100 µM
  reduction of neuronal cell death from AMPA: > 80%
Cortical neurons [6]; cortical neurons
  protection against AMPA excitotoxic injury: protected cortical neurons against excitotoxic injury; also recorded: robust neuroprotection
Cortical neurons [7]; 300 (M [µM]
  protection from NMDA, some experiments: nearly complete protection
Cortical neurons [7]; 300 (M [µM], 24 h after 10 min NMDA, 300 µM
  reduction of neuronal death from NMDA, all experiments: at least 60%
Cortical neurons [7]; cortical neurons
  protection against NMDA excitotoxic injury: protected cortical neurons against excitotoxic injury; also recorded: robust neuroprotection
Cortical neurons [7]; pooled data from three experiments, FIG. 5
  reduction in neuronal cell death (NMDA), pooled data: 75%

— patent publication US6265443A, “Method for treating neuronal injury with carboxyfullerene” (priority 1997, dated 2001)
